In US6025387A, “Gastroprotective flavone/flavanone compounds with therapeutic effect on inflammatory bowel disease” (Dong a Pharmaceutical Co., Ltd., priority 1996, dated 2000):
Values after ≈ are worked out from the molar mass of the structure shown. Each block holds one compound with its values, some of them ahead of it.

Experiments:
leukocytes = conditions: cited from earlier work
neutrophils = assay: Luminol-dependent chemiluminescence of neutrophils induced by FMLP; type: cell-based; conditions: Neutrophil, 1 μM FMLP, 0.07 mM luminol; read-out: IC50, inhibition of chemiluminescence generated by neutrophil activation
Description: Measurement of luminol-dependent chemiluminescencei iof neutrophil induced by FMLP.
20 mL of 12% sodium caseinate-0.9% saline was administered intraperitoneally (Newsby, A. C., Biochem. J., 1980, 186: 907,. After 20 hours, the intraperitoneal exudate was extracted under ether anesthesia. The exudate was centrifuged, and erythrocytes were removed by hypotonic lysis, and then neutrophil was washed. Neutrophil was ascertained by Wright's dyeing method, and viability was measured by Trypan blue exclusion test. Chemiluminescence was measured by Topcount (Packard Co.). The suspension of 1.5×10^6 of granulocytes, 1 μM of FMLP, 0.07 mM of luminol and the compound in HBSS was used (Dahlgren, C., et al., Infect. Immun., 1985 47: 326-328).
**IC50 (μg/mL): Concentration of the compound at inhibiting
chemiluminescence generated by neutrophil activation to 50%

[1] = system: gastric mucosal damage induced by ethanolic HCl; assay: Gastritis model induced with ethanolic-HCl; type: in vivo, SD male rat; conditions: po, 1 h, rat; for inhibition in vivo at 0.3 mg/kg: 0.3 mg/kg p.o.; for inhibition in vivo at 1 mg/kg: 1 mg/kg p.o.; for inhibition in vivo at 3 mg/kg: 3 mg/kg p.o.
Description: Effect on the Gastritis Model Induced with Ethanolic-HCl.
SD male rat(250-350 g) was fasted for 24 hours. The compound was orally administered in suspension of 5% HPMC, and after 1 hour 1.5 mL of 150 mM HCl-80% ethanol was orally administered. After 1 hour the rat was sacrifieced and the stomach was extracted and the ulcer index was measured. The ulcer index was shown by the area of hemorrhage lesion(Mizui, T, et al., Jpn. J. Pharmacol. 1983, 33: 939).

cyclooxygenase [2] = assay: Cyclooxygenase activity in HUVEC (PGE2 synthesis); type: cell-based
Description: (§1) Measurment of Cyclooxygenase Actvity
(§2) After addition of the compound to cultured HUVEC, the HUVEC was incubated at 37° C., for 30 minutes, then arachidonic acid (final concentration: 30 .rho.M) was added, and the HUVEC was additionally incubated at 37° C. for 15 minutes. The culture medium was taken, and the activity of cyclooxygenase for 6-Keto-PGF1 α or PGE2 was measured by radioimmunoassay (Mitchell, J. A., et al., Pro. Natl. Acad. Sci. USA 1994, 90: 11693-11697).
**SC200 (μg/mL) : Concentration at increasing generation of […]

cyclooxygenase [3] = assay: Cyclooxygenase activity in HUVEC (PGF1 α synthesis); type: cell-based
Description: as §1, §2
**SC200 (ug/mL) : Concentration at increasing generation of […]

gastric mucus secretion = assay: Measurement of gastric mucus; type: in vivo, SD male rat; conditions: oral, rat
Description: Measurement of Gastric Mucus
The compound was orally administered into SD male rat (200~250 g). After 1 hour the stomach was extracted. The extracted stomach was immediately washed with 10 mL of cold 0.25M sucrose solution. The gastric mucosa was dyed with 0.1% alcian blue solution for 2 hours. After dyeing, the gastric mucosa was washed with 0.25M sucrose solution twice for 15 minutes and for 45 minutes. The dyed gastric mucosa was treated with 10 mL of 30% dioctyl sodium sulfosuccinate solution for 2 hours to extract dyed mucus completely and optical density of aqueous phase was measured spectrophotometrically at 655 nm. The amount of mucus in the gastric mucosa was shown as the amount of alcian blue after calibration (Kitagawa, H., et al., Drug Res. 1986, 36: 1240-1244).

5-lipoxygenase = biological target: T1, 5-lipoxygenase (Rattus norvegicus, UniProt P12527); assay: 5-lipoxygenase activity (LTB4 in A23187-stimulated peritoneal neutrophils); type: cell-based
T1 construct: endogenous in cells; host or cells: casein-elicited rat peritoneal neutrophils
T1 sequence (P12527 1-673): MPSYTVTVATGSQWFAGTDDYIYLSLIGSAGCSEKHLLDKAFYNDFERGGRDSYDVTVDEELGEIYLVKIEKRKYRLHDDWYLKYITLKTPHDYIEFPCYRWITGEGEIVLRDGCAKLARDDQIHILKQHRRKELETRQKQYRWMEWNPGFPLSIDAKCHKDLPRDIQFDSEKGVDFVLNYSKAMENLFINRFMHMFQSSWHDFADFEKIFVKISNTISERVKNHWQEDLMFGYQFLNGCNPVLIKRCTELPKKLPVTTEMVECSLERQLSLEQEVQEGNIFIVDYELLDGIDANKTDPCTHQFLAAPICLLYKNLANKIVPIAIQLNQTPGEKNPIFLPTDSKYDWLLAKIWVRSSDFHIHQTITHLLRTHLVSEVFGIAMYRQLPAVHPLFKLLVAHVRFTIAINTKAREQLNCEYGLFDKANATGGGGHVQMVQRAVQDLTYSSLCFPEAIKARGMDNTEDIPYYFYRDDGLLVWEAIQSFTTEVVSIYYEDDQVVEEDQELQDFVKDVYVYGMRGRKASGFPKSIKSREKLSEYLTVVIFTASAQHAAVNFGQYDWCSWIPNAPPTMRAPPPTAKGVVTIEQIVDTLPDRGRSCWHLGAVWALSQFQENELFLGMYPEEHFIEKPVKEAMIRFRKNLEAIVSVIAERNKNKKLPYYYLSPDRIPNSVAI
Description: Measurement of 5-lipooxygenase Activity
Modified Safayhi et al.'s method (Safayhi, H., et al., Biochem. Pharmacol. 1985, 34: 2691) was used to this experiment. Peritoneal neutrophil was separated from the rat which was treated with casein solution. The compound was added to 10^7 cells (5×10^6 cells/mL, 2 mL) of neutrophil after 2 minutes Ca^2+ -ionophore, A23187 (1 μg/mL) was added and the mixture was incubared at 37° C. for 10 minutes. The reaction mixture was centrifuged and the supermatant was taken up. The amount of LTB4 in the supermatant was measured by radioimmunoassay.

[4] = system: gastric ulcer induced by NSAIDs; conditions: clinical; cited from earlier work
[5] = system: gastric mucosal damage induced by NSAIDs; conditions: NSAID-induced; cited from earlier work
[6] = system: epidermal cells of mucous membrane in gastrointestinal tracts; conditions: cited from earlier work
[7] = system: gastritis and gastric ulcer; conditions: in vivo; cited from earlier work
experimental ulceration = conditions: various kinds of ulcerogens; cited from earlier work
gastric mucosa = conditions: U.S. Pat. No. 5,399,584; cited from earlier work

Compound: COc1ccc2c(c1)c(CC(=O)O)c(C)n2C(=O)c1ccc(Cl)cc1 [indomethacin]
leukocyte adherence to vascular endothelium (leukocytes): induce adherence of leukocytes to the vascular endothelium

IC50 (neutrophils): 0.463 µg/mL (≈ 1.34 µM)
IC50 (5-lipoxygenase): 13.1 µM
Compound: COc1ccc(-c2cc(=O)c3c(O)c(OC)c(O)cc3o2)cc1OC [5,7-dihydroxy-3',4',6-trimethoxy flavone]
inhibition in vivo at 0.3 mg/kg [1]: 58%
inhibition in vivo at 1 mg/kg [1]: 64%
inhibition in vivo at 3 mg/kg [1]: 80%
SC200, concentration increasing generation of PGE2 to 200% (cyclooxygenase [2]): 2.4 µg/mL
SC200, concentration increasing generation of PGF1α to 200% (cyclooxygenase [3]): 3.4 µg/mL
gastric mucus secretion, % Control (gastric mucus secretion; 0.3 mg/kg): 132.2 % Control
gastric mucus secretion, % Control (gastric mucus secretion; 3 mg/kg): 130.7 % Control
gastric mucus secretion, % Control (gastric mucus secretion; 30 mg/kg): 116.8 % Control

Compound: CCCCC(C)(O)C/C=C/[C@H]1[C@H](O)CC(=O)[C@@H]1CCCCCCC(=O)OC (mixture of isomers) [misoprostol]
prevention of NSAID-induced gastric ulcer [4]: prevented the gastric ulcer induced by NSAIDs

Compound: catalase
reduction of gastric mucosal damage [5]: significantly reduce the extent of gastric mucosal damage induced by NSAIDs

Compound: COc1ccc2[nH]c([S+]([O-])Cc3ncc(C)c(OC)c3C)nc2c1 (centres unmarked) [omeprazole]
effect of long-term administration to rats [6]: caused dysplasia in epidermal cells of mucous membrane in gastrointestinal tracts

Compound: COc1ccc(C2CC(=O)c3c(cc(O)c(OC)c3O)O2)cc1OC (centres unmarked) [5,7-dihydroxy-3',4',6-trimethoxy flavanone]
inhibition in vivo at 0.3 mg/kg [1]: 5%
inhibition in vivo at 1 mg/kg [1]: 49%
inhibition in vivo at 3 mg/kg [1]: 56%
SC200, concentration increasing generation of PGE2 to 200% (cyclooxygenase [2]): 3.9 µg/mL
SC200, concentration increasing generation of PGF1α to 200% (cyclooxygenase [3]): 34.6 µg/mL

Compound: sucralfate
frequency of recurrence [7]: low frequency of recurrence

Compound: COc1ccc(-c2cc(=O)c3c(OC)c(OC)c(OCC(=O)O)cc3o2)cc1OC [7-carboxymethyloxy-3',4',5,6-tetramethoxy flavone]
IC50 (neutrophils): 1.57 µg/mL (≈ 3.77 µM)
inhibition in vivo at 0.3 mg/kg [1]: 54%
inhibition in vivo at 1 mg/kg [1]: 77%
inhibition in vivo at 3 mg/kg [1]: 84%
SC200, concentration increasing generation of PGE2 to 200% (cyclooxygenase [2]): 15.76 µg/mL
SC200, concentration increasing generation of PGF1α to 200% (cyclooxygenase [3]): 11.09 µg/mL
gastric mucus secretion, % Control (gastric mucus secretion; 0.3 mg/kg): 120 % Control
gastric mucus secretion, % Control (gastric mucus secretion; 3 mg/kg): 130 % Control
gastric mucus secretion, % Control (gastric mucus secretion; 30 mg/kg): 139 % Control
IC50 (5-lipoxygenase): 140 µM

Compound: CCCCC[C@H](O)/C=C/[C@H]1[C@H](O)CC(=O)[C@@H]1C/C=C\CCCC(=O)O [PGE2]
prevention of experimental ulceration (experimental ulceration): effectively prevent the experimental ulceration

Compound: COc1cccc2oc(-c3ccc(F)cc3)cc(=O)c12 [4'-fluoro-5-methoxy flavone]
protective effect on damage of gastric mucosa (gastric mucosa): protective effect on the damage of gastric mucosa
